Laboratory results reported in US20260285850A1, “SUBSTITUTED OXAZOLIDINONES AND IMIDAZOLINONES AS HERBICIDES” (FMC CORPORATION, priority 2023, published 2026).

What was measured:
Type in all cases: in vivo
[1] = test system: barnyardgrass (Echinochloa crus-galli); assay: Test A preemergence soil spray, visual injury rating 0-100; conditions: 10 days
Summary of the method: (§1)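 Compounds formulated in a non-phytotoxic solvent with surfactant are sprayed onto soil of freshly planted loam-sand pots ahead of emergence, or onto emerged plants 2-10 cm tall. After a 10-day greenhouse period, each species is scored visually for injury against untreated controls.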

[2] = test system: blackgrass (Alopecurus myosuroides); assay: as above; conditions: 10 days
Summary of the method: as §1

[3] = test system: corn (Zea mays); assay: as above; conditions: 10 days
Summary of the method: as §1

[4] = test system: green foxtail (Setaria viridis); assay: as above; conditions: 10 days
Summary of the method: as §1

[5] = test system: kochia (Bassia scoparia); assay: as above; conditions: 10 days
Summary of the method: as §1

[6] = test system: oat, wild (wild oat, Avena fatua); assay: as above; conditions: 10 days
Summary of the method: as §1

[7] = test system: palmer (palmer amaranth, palmer pigweed, Amaranthus palmeri); assay: as above; conditions: 10 days
Summary of the method: as §1

[8] = test system: ragweed (common ragweed, Ambrosia artemisiifolia); assay: as above; conditions: 10 days
Summary of the method: as §1

[9] = test system: ryegrass, Italian (italian ryegrass, Lolium multiflorum); assay: as above; conditions: 10 days
Summary of the method: as §1

[10] = test system: soybean (Glycine max); assay: as above; conditions: 10 days
Summary of the method: as §1

[11] = test system: wheat (Triticum aestivum); assay: as above; conditions: 10 days
Summary of the method: as §1

[12] = test system: barnyardgrass (Echinochloa crus-galli); assay: Test A postemergence application, visual injury rating 0-100
Summary of the method: as §1

[13] = test system: blackgrass (Alopecurus myosuroides); assay: as above
Summary of the method: as §1

[14] = test system: corn (Zea mays); assay: as above
Summary of the method: as §1

[15] = test system: galium (catchweed bedstraw, Galium aparine); assay: as above
Summary of the method: as §1

[16] = test system: green foxtail (Setaria viridis); assay: as above
Summary of the method: as §1

[17] = test system: horseweed (Erigeron canadensis); assay: as above
Summary of the method: as §1

[18] = test system: kochia (Bassia scoparia); assay: as above
Summary of the method: as §1

[19] = test system: oat, wild (wild oat, Avena fatua); assay: as above
Summary of the method: as §1

[20] = test system: palmer (palmer amaranth, palmer pigweed, Amaranthus palmeri); assay: as above
Summary of the method: as §1

[21] = test system: ragweed (common ragweed, Ambrosia artemisiifolia); assay: as above
Summary of the method: as §1

[22] = test system: ryegrass, Italian (italian ryegrass, Lolium multiflorum); assay: as above
Summary of the method: as §1

[23] = test system: soybean (Glycine max); assay: as above
Summary of the method: as §1

[24] = test system: wheat (Triticum aestivum); assay: as above
Summary of the method: as §1

[25] = test system: barnyardgrass (Echinochloa crusgalli); assay: Test B flooded paddy test, visual plant response rating 0-100; conditions: 250 g ai/ha, Flood, applied to paddy water, evaluated after 13 days
Summary of the method: (§2)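 Plants were grown to the 2-leaf stage, then pots were flooded to 3 cm above the soil and test compounds were applied directly into the paddy water. Water depth was held there throughout; after 13 days in a greenhouse, injury was scored visually against untreated controls.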

[26] = test system: ducksalad (Heteranthera limosa); assay: as above; conditions: 250 g ai/ha, Flood, applied to paddy water, evaluated after 13 days
Summary of the method: as §2

[27] = test system: rice (Oryza sativa); assay: as above; conditions: 250 g ai/ha, Flood, applied to paddy water, evaluated after 13 days
Summary of the method: as §2

[28] = test system: sedge, umbrella (small-flower umbrella sedge, Cyperus difformis); assay: as above; conditions: 250 g ai/ha, Flood, applied to paddy water, evaluated after 13 days
Summary of the method: as §2

[29] = 62 g ai/ha, 0 = no effect, 100 = complete control
[30] = 62 g ai/ha, postemergence, 10 days, 0 = no effect, 100 = complete control
[31] = Postemergence, 16 g ai/ha, greenhouse 10 days, 0 no effect, 100 complete control

COC(=O)C1CC(NC(=O)C2(C)CN(c3cc(F)cc(F)c3)C(=O)O2)C1 (stereo not shown) [Compound 117]
40: Oat, Wild plant response rating ([6]; 16 g ai/ha, 0 to 100 scale) | Ragweed plant response rating (0-100) [21, 30] | Soybean plant response rating (0 to 100 scale) [23, 31]
0: Barnyardgrass plant response rating ([1]; 16 g ai/ha, 0 to 100 scale) | Corn plant response rating ([3]; 16 g ai/ha, 0 to 100 scale) | Corn plant response rating (0-100) [3, 29] | Foxtail, Green plant response rating ([4]; 16 g ai/ha, 0 to 100 scale) | Kochia plant response rating ([5]; 16 g ai/ha, 0 to 100 scale) | Kochia plant response rating (0-100) [5, 29] | Pigweed, Palmer plant response rating ([7]; 16 g ai/ha, 0 to 100 scale) | Ragweed plant response rating ([8]; 16 g ai/ha, 0 to 100 scale) | Ragweed plant response rating (0-100) [8, 29] | Ryegrass, Italian plant response rating ([9]; 16 g ai/ha, 0 to 100 scale) | Soybean plant response rating ([10]; 16 g ai/ha, 0 to 100 scale) | Soybean plant response rating (0-100) [10, 29] | Wheat plant response rating ([11]; 16 g ai/ha, 0 to 100 scale) | Barnyardgrass plant response rating (0 to 100 scale) [12, 31] | Corn plant response rating (0 to 100 scale) [14, 31] | Horseweed plant response rating (0-100) [17, 30] | Horseweed plant response rating (0 to 100 scale) [17, 31] | Kochia plant response rating (0-100) [18, 30] | Kochia plant response rating (0 to 100 scale) [18, 31] | Pigweed, Palmer plant response rating (0 to 100 scale) [20, 31] | Ragweed plant response rating (0 to 100 scale) [21, 31] | Plant response rating, Barnyardgrass (0 to 100 scale, 0 is no effect and 100 is complete control) [25] | Plant response rating, Ducksalad (0 to 100 scale, 0 is no effect and 100 is complete control) [26] | Plant response rating, Rice (0 to 100 scale, 0 is no effect and 100 is complete control) [27] | Plant response rating, Sedge, Umbrella (0 to 100 scale, 0 is no effect and 100 is complete control) [28]
60: Blackgrass plant response rating (0-100) [2, 29] | Galium plant response rating (0-100) [15, 30] | Ryegrass, Italian plant response rating (0 to 100 scale) [22, 31] | Soybean plant response rating (0-100) [23, 30]
100: Corn plant response rating (0-100) [14, 30]
80: Foxtail, Green plant response rating (0-100) [4, 29] | Oat, Wild plant response rating (0-100) [19, 30] | Ryegrass, Italian plant response rating (0-100) [22, 30]
70: Ryegrass, Italian plant response rating (0-100) [9, 29] | Barnyardgrass plant response rating (0-100) [12, 30] | Blackgrass plant response rating (0 to 100 scale) [13, 31]
30: Blackgrass plant response rating ([2]; 16 g ai/ha, 0 to 100 scale) | Foxtail, Green plant response rating (0 to 100 scale) [16, 31]
50: Galium plant response rating (0 to 100 scale) [15, 31] | Wheat plant response rating (0 to 100 scale) [24, 31]
90: Oat, Wild plant response rating (0-100) [6, 29] | Blackgrass plant response rating (0-100) [13, 30] | Foxtail, Green plant response rating (0-100) [16, 30] | Wheat plant response rating (0-100) [24, 30]
10: Barnyardgrass plant response rating (0-100) [1, 29] | Pigweed, Palmer plant response rating (0-100) [7, 29] | Oat, Wild plant response rating (0 to 100 scale) [19, 31] | Pigweed, Palmer plant response rating (0-100) [20, 30]
20: Wheat plant response rating (0-100) [11, 29]
